This is an account of results in US20190175560A1, “MEBENDAZOLE CANCER THERAPIES AND METHODS OF USE” (Shepherd Therapeutics, Inc., priority 2017, published 2019).

Series [1] in a line: Tolerability of daily oral MBZ dosing in ACC PDX mice. It is filed as in vivo. Conditions: athymic nude mice with ACC PDX tumors; 50 or 200 mg/kg daily. As for the experimental part: (§1) Despite a deepening understanding of the molecular events that lead to sustained tumor growth, there are currently no approved therapies for ACC. Identification of therapies for ACC has been hampered by the lack of ACC cell lines and transgenic mouse models. To circumvent these issues, the activity of MBZ was tested in several ACC patient-derived xenograft (PDX) models. Athymic nude mice were implanted subcutaneously with PDX tumors and treatment was initiated when tumors reached a size of 125-300 mm^3. Mice were randomized into three treatment groups to receive daily treatment with vehicle or MBZ at either 50 or 200 mg/kg for the duration of the study. Tumor size was measured twice weekly.

Series [2] concerns gastric cancer primary cells isolated from patient-derived xenograft model GA0033. Kind of series: Ex vivo 3D assay, cell viability (Cell Titer Glo). It is filed as cell-based. Conditions: 168 h, 3D culture, seven days. Here is the method: (§2) To evaluate the efficacy of MBZ in an additional model system, an ex vivo 3D assay using gastric cancer primary cells isolated from two patient-derived xenograft models (A. GA0033 and B. GA3155) was performed. Cells were seeded in 3D cultures and treated for seven days with MBZ at nine different doses in triplicate. Cell viability was determined using Cell Titer Glo. An IC50 was established using the PRISM software.

For series [3], the system named is gastric cancer primary cells isolated from patient-derived xenograft model GA3155. Kind of series: Ex vivo 3D assay, cell viability (Cell Titer Glo). The format is cell-based. Conditions: 168 h, 3D culture, seven days. Here is the method: as §2
Series [4] concerns CHP-212 neuroblastoma cell line. Put plainly: MBZ cell viability IC50 (CellTiter Glo). It is filed as cell-based. Conditions: Homo sapiens, 72 hours. As for the experimental part: The effect of mebendazole administration on cell lines derived from exemplary cancers was tested. One approach to determining the effectiveness of mebendazole in the treatment of cancer comprises in vitro testing. In this approach, cancer cell lines representative of the cancers of the disclosure are cultured in vitro according to standard techniques (see, for example, Human Cell Culture Protocols, Third Edition, […] R. D. Hughes, Editors, Humana Press, 2012), and increasing concentrations of mebendazole are administered to determine the IC50 value. As used herein, the term “IC50 value” refers to the concentration of a compound (for example mebendazole) wherein the response to that compound (such as inhibited cellular viability) is reduced by half. The IC50 is thus a measure of the effectiveness of a compound in inhibiting a biological process. […] Based on this biology, several rare cancer tumor cell lines including neuroblastoma, rhabdomyosarcoma and Ewing sarcoma were analyzed for sensitivity to MBZ treatment in vitro. […] In all cases, including those described below, the viable cells were determined using the CellTiter Glo® kit and an IC50 curve was generated using the PRISM software. […] The neuroblastoma cell lines IMR-32, CHP-212, and SK-N-AS were treated with ten serial dilutions of mebendazole for 72 hours.
On the technique in general: Cellular ATP, detected with luciferase, serves as a proxy for viable cell number.

The subject of a further series is ACCX9 PDX tumors. Kind of series: ACC patient-derived xenograft (PDX) model, daily oral MBZ. The format is in vivo, mice. The conditions noted are these: for median survival: vehicle 29.5 days. Here is the method: (§3) The effectiveness of mebendazole can be assayed in vivo using a patient derived xenograft mouse model. In patient derived xenograft mice, cancerous cells isolated from a cancer patient are implanted into an immunodeficient mouse, and allowed to form tumors. The mice are then administered mebendazole, and the effect on tumor size and mouse viability is assayed. As xenograft cancers can be implanted from a variety of patient sources, the effectiveness of mebendazole treatment on multiple cancers can be assayed in this manner. Human cancer cell lines such as those tested in vitro can similarly be used in mouse xenograft tumor models.
as §1

A further series has as its system ACCX5M1 PDX tumors. Described as above. The format is in vivo, mice. The conditions noted are these: 50 or 200 mg/kg daily oral. Here is the method: as §3, §1
For a further series, the system named is ACCX6 PDX tumors. The description is as above. Conditions: for median survival: vehicle 42 days. It is filed as in vivo, mice. Here is the method:
as §3, §1

Series [5] deals with MUG-Chor1 chordoma cell line. Put plainly: MBZ cell viability dose response (CellTiter Glo). It is filed as cell-based. The conditions noted are these: 72 hours, up to the highest concentration, 50 μM. As for the experimental part:
(§4) The effect of mebendazole administration on cell lines derived from exemplary cancers was tested. One approach to determining the effectiveness of mebendazole in the treatment of cancer comprises in vitro testing. In this approach, cancer cell lines representative of the cancers of the disclosure are cultured in vitro according to standard techniques (see, for example, Human Cell Culture Protocols, Third Edition, […] R. D. Hughes, Editors, Humana Press, 2012), and increasing concentrations of mebendazole are administered to determine the IC50 value. As used herein, the term “IC50 value” refers to the concentration of a compound (for example mebendazole) wherein the response to that compound (such as inhibited cellular viability) is reduced by half. The IC50 is thus a measure of the effectiveness of a compound in inhibiting a biological process. […] Based on this biology, several rare cancer tumor cell lines including neuroblastoma, rhabdomyosarcoma and Ewing sarcoma were analyzed for sensitivity to MBZ treatment in vitro. […] In all cases, including those described below, the viable cells were determined using the CellTiter Glo® kit and an IC50 curve was generated using the PRISM software. […] A dose response curve was generated using the PRISM software, with the intent of determining an IC50 for the cell lines following treatment of MBZ.

In another series the test system is U-CH2 chordoma cell line. Kind of series: MBZ cell viability dose response (CellTiter Glo). It is filed as cell-based. Conditions: 72 hours, up to the highest concentration, 50 μM. Here is the method: as §4
Series [6] relates to PC12 pheochromocytoma/paraganglioma cell line. Put plainly: Synergy of MBZ or HA-PLGA-MBZ with chemotherapeutic agents (Chou-Talalay CI, Cell Titer Glo). It is filed as cell-based. The conditions noted are these: PC12 + Vincristine.
Method: (§5) For in vitro experiments, cells were plated in triplicate and treated with a range of concentrations of MBZ and relevant chemotherapeutic agents in a complete Latin square.
(§6) Cells were plated in triplicate and treated with a range of 5 concentrations of MBZ in combination with 5 concentrations of chemotherapeutic agents in a complete Latin square. Following a 72 hour incubation, cell viability was determined using Cell Titer Glo.
(§7) In table 22 below, cells were plated in triplicate and treated with a range of 5 concentrations of MBZ or HA-PLGA-MBZ nanoparticles containing a molar equivalent of MBZ, and 5 concentrations of relevant chemotherapeutic agents in a complete Latin square. Combination indexes (CI) were determined based on the method described by Chou-Talalay with a CI value less than 0.9 indicating synergy. […] Numbers in parentheses represent the range of synergistic CI values for each cell line and drug combination.
The subject of series [7] is CHP-212 neuroblastoma cells. The series is described as above. The conditions noted are these: CHP-212 + 4-HC. The format is cell-based.
Method: as §5, §6, §7
Series [8] has as its system rare cancer tumor cell lines including neuroblastoma, rhabdomyosarcoma and Ewing sarcoma. Put plainly: MBZ cell viability IC50 across rare cancer tumor cell lines. Conditions: several rare cancer tumor cell lines; 72 hours; read-out: IC50s (range over cell lines). The format is cell-based. Here is the method:
The effect of mebendazole administration on cell lines derived from exemplary cancers was tested. One approach to determining the effectiveness of mebendazole in the treatment of cancer comprises in vitro testing. In this approach, cancer cell lines representative of the cancers of the disclosure are cultured in vitro according to standard techniques (see, for example, Human Cell Culture Protocols, Third Edition, […] R. D. Hughes, Editors, Humana Press, 2012), and increasing concentrations of mebendazole are administered to determine the IC50 value. As used herein, the term “IC50 value” refers to the concentration of a compound (for example mebendazole) wherein the response to that compound (such as inhibited cellular viability) is reduced by half. The IC50 is thus a measure of the effectiveness of a compound in inhibiting a biological process. […] Based on this biology, several rare cancer tumor cell lines including neuroblastoma, rhabdomyosarcoma and Ewing sarcoma were analyzed for sensitivity to MBZ treatment in vitro. […] In all cases, including those described below, the viable cells were determined using the CellTiter Glo® kit and an IC50 curve was generated using the PRISM software.

Setting [9] is: both the 50 and 200 mg/kg dose levels.

As to `COC(=O)Nc1nc2ccc(C(=O)c3ccccc3)cc2[nH]1` [MBZ, methyl N-(6-benzoyl-1H-benzimidazol-2-yl)carbamate], the “tolerability of daily oral dosing” value in series [1] is “well tolerated with no overt toxicities”. Further, the IC50 is 740 nM in [2], 760 nM in series [3], 130 nM in series [4] and 50 to 1000 nM in series [8]. Also, the median survival turned out to be 33 days in the series on ACCX9 PDX tumors (50 mg/kg daily oral, not statistically significant); 38 days in the series on ACCX9 PDX tumors (200 mg/kg daily oral); 95.5 days with ACCX6 PDX tumors (50 mg/kg daily oral); 64.5 days in the series on ACCX6 PDX tumors (200 mg/kg daily oral). In addition, the tumor volume entry in the series with ACCX9 PDX tumors (200 mg/kg) and in the series on ACCX6 PDX tumors (setting [9]) was “decrease in tumor volume” in each case. Further, the anti-tumor activity result in the series with ACCX9 PDX tumors (highest dose of 200 mg/kg) was “statistically significant anti-tumor activity”. In addition, the tumor growth entry in the series with ACCX5M1 PDX tumors is on record as “did not inhibit tumor growth”. For the same compound, the “tumor growth compared to vehicle” value with ACCX6 PDX tumors (setting [9]) is “Inhibition of tumor growth”. The “sensitivity to MBZ treatment (dose response)” value (in series [5]; in the series with U-CH2 chordoma cell line) was “largely resistant” throughout. Besides, the “range of synergistic CI values” in [6] is given as “Yes- (0.274-0.870)”; in [7], 0.569-0.860.
